# According to patent publication US20250002470A1, “NITROGEN-CONTAINING COMPOUND, PREPARATION METHOD THEREFOR AND APPLICATION THEREOF” (ZHEJIANG AIXPLORER BIOTECH CO., LTD., priority 2021, published 2025):
# Biological target: T1, NLRP3 (Homo sapiens, UniProt Q96P20)
# T1 construct: endogenous in cells; host or cells: THP-1 cells (IFN-γ differentiated, LPS primed, ATP stimulated)
# Test: IL-1β (interleukin-1β) secretion in IFN-γ-differentiated, LPS/ATP-stimulated THP-1 cells (half inhibition rate of NLRP3)
# Assay type: cell-based
# Details: IFN-γ 25 ng/mL, LPS 50 ng/mL, ATP 5 mM
# Description: Remove THP-1 cells from liquid nitrogen and place in a 37° C. water bath until ice melt. Add the cells to 5 mL of warm cell culture medium and centrifuge at 1,000 rpm for 5 min. Discard the supernatant and resuspend and culture in a new cell culture medium.
# THP-1 cells are cultured in the culture medium and passaged every 2-3 days.
# 2.1.1 Add 100 μL of cell suspension per well to the cell plate and incubate the cell plate in a 37° C., 5% CO2 incubator for 24 hours.
# 2.2.1 Discard the supernatant of IFN-γ differentiation after differentiation treatment. Add 100 μL of serum-free medium containing LPS (final concentration of 50 ng/mL) to the cell plate. The cell plates were incubated in a 37° C., 5% CO2 incubator for 4 h.
# Place the cell plate in an incubator at 37° C. and 5% CO2 for 1 hour.
# 2.2.3 Add 20 μL of 6×ATP per well according to the plate map (final concentration 5 mM) and incubate the cell plate in a 37° C., 5% CO2 incubator for 1 h. Collect the supernatant (60 μL) and store at −20° C.
# The capture antibody mAb Mt175 is diluted to 2 μg/mL with PBS (1:250) and added to the cell plate at 15 μL per well. Keep the plate overnight at 4° C.
# 2.4.1 Discard the coated antibody and wash 4 times with PBST.
# 2.4.3 Discard the blocking buffer and wash 4 times with PBST.
# 2.4.4 Add 25 μL of 2.2.3 collected supernatant sample per well and incubate for 2 h at room temperature.
# 2.4.5 Discard the samples and wash 4 times with PBST.
# 2.4.6 Add mAb7P10-biotin (concentration 0.5 ug/mL) to blocking buffer, add 15 μL per well to the cell plate, and incubate for 1 hour at room temperature.
# 2.4.7 Discard the antibody and wash 4 times with PBST.
# 2.4.8 Streptavidin-HRP was diluted 1:1000 in blocking buffer, 15 μL per well was added to the cell plate, and incubated for 1 hour at room temperature.
# 2.4.9 Discard streptavidin-HRP and wash 4 times with PBST.
# 2.4.10 Add 25 μL of HRP substrate (Surmodics-TMBW-0100-01) per well and incubate the cell plate until a blue product appears.
# 2.4.11 Add 25 μL of stop solution (Surmodics-LSTP-0100-01) per well, and the blue product turns yellow.
# 2.4.12 Read the cell plate at 450 nm with a microplate reader.
# T1 sequence (Q96P20 whole entry): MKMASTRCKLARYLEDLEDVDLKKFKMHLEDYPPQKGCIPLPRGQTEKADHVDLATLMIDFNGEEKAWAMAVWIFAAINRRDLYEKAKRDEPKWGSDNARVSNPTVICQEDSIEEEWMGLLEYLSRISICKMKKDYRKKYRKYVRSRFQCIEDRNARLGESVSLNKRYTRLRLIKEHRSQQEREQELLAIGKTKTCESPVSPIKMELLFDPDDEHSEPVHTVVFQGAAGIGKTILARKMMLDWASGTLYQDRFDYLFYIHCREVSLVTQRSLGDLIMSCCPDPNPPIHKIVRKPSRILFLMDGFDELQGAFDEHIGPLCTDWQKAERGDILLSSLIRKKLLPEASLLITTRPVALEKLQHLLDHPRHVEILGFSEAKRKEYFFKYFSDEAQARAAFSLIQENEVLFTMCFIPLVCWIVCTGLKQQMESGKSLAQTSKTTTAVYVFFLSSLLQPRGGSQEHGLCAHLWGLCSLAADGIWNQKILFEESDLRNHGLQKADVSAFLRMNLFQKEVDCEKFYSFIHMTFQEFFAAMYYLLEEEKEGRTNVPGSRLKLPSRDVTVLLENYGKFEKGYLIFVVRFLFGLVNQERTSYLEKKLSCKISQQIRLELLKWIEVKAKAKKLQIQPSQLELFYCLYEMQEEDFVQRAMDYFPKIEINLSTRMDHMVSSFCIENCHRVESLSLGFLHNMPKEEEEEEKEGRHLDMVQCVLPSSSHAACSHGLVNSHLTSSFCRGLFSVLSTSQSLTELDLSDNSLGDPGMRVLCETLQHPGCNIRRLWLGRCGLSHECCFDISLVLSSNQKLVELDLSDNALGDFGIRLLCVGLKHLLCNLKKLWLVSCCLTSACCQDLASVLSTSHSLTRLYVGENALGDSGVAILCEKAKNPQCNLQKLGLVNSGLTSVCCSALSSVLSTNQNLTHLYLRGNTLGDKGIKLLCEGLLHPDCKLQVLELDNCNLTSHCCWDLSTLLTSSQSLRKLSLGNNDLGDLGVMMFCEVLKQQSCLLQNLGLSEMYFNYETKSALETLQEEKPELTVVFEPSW
row,IC50,SMILES
1,1.2 nM,"Cc1nc(N[C@@H]2CCCN(C)C2)nnc1-c1ccc(Cl)cc1O [Embodiment 7, (R)-5-Chloro-2-(5-methyl-3-((1-methylpiperidin-3-yl)amino)-1,2,4-triazin-6-yl)phenol]"
2,19.4 nM,"C[C@]1(O)C[C@@H](Nc2nnc(-c3ccc(C(F)(F)F)cc3O)c3ccncc23)C1 [Embodiment 77, 2-(4-(((cis)-3-hydroxy-3-methylcyclobutyl)amino)pyrido[3,4-d]pyridazin-1-yl)-5-(trifluoromethyl)phenol]"
3,16.1 nM,CN1CCC[C@@H](Nc2nnc(-c3ccc(C(F)(F)F)cc3O)c3ccn(C)c23)C1 [Embodiment 113]
4,1.1 nM,"CN1CCC[C@@H](Nc2nnc(-c3ccc(Cl)cc3O)c3ccccc23)C1 [Embodiment 28, (R)-5-chloro-2-(4-((1-methylpiperidin-3-yl)amino)phthalazin-1-yl)phenol]"
5,20.6 nM,CN1CCC[C@@H](Nc2nnc(-c3ccc(Cl)cc3O)c3ncccc23)C1 [Embodiment 124]
6,9.5 nM,Oc1cc(C(F)(F)F)cc(F)c1-c1nnc(N[C@@H]2CCCC[C@H]2O)c2ncccc12 [Embodiment 140]
7,5.47 nM,CN1CCC[C@@H](Nc2nnc(-c3ccc(Cl)cc3O)c3cccnc23)C1 [Embodiment 123]
8,0.9 nM,CCN1CCC[C@@H](Nc2nnc(-c3ccc(C(F)(F)F)cc3O)c(C)n2)C1 [Embodiment 143]
9,3.2 nM,OCCN1CCC[C@@H](Nc2nnc(-c3ccc(Cl)cc3O)c3cc(F)ccc23)C1 [Embodiment 154]
10,7.4 nM,Cc1nc(N[C@@H]2CCCN(CC3CC3)C2)nnc1-c1ccc(C(F)(F)F)cc1O [Embodiment 146]
11,92.8 nM,Oc1cc(C(F)(F)F)ccc1-c1nnc(N[C@@H]2CCCC[C@H]2O)c2cccnc12 [Embodiment 71]
12,1.2 nM,CN1CCC[C@@H](Nc2nnc(-c3ccc(C(F)(F)F)cc3O)c3cc(F)ccc23)C1 [Embodiment 121]
13,4 nM,"Cc1cc(Cl)cc(O)c1-c1cnc(N[C@@H]2CCCN(C)C2)nn1 [Embodiment 11, (R)-5-chloro-3-methyl-2-(3-((1-methylpiperidin-3-yl)amino)-1,2,4-triazin-6-yl)phenol]"
14,4.1 nM,CN1CCC[C@@H](Nc2nnc(-c3ccc(C(F)(F)F)cc3O)c3ccc(F)cc23)C1 [Embodiment 120]
15,32.1 nM,"Cc1cc(C)c(-c2cnc(NC3CCCN4CCCC34)nn2)c(O)c1 [Embodiment 4, (R)-3,5-dimethyl-2-(9-((1,2,3,5,6,7,8,8a-octahydroindozine-9-yl)amino)-1,2,4-triazin-6-yl)phenol]"
16,5.7 nM,"CN1CCC[C@@H](Nc2nnc(-c3ccc(C(F)(F)F)cc3O)c3ccoc23)C1 [Embodiment 18, (R)-2-(7-((1-methylpiperidin-3-yl)amino)furo[2,3-d]pyridazin-4-yl)-5-(trifluoromethyl)phenol]"
17,11.3 nM,Cc1nc(N[C@@H]2CCCN(C3CCC3)C2)nnc1-c1ccc(C(F)(F)F)cc1O [Embodiment 142]
18,193 nM,"Cc1cc(C)c(-c2cnc(N[C@@H]3CCCN(CC(=O)N[C@@H](C)CO)C3)nn2)c(O)c1 [Embodiment 24, 2-((R)-3-((6-(2-hydroxy-4,6-dimethylphenyl)-1,2,4-triazin-3-yl)amino)piperidin-1-yl)-N—((S)-1-hydroxypropyl-2-yl)acetamide]"
19,47.4 nM,"C[C@]1(O)C[C@@H](Nc2nnc(-c3ccc(C(F)(F)F)cc3O)c3c2CCC3)C1 [Embodiment 82, 2-(4-(((cis)-3-hydroxy-3-methylcyclobutyl)amino)-6,7-dihydro-5H-cyclopenta[d]pyridazin-1-yl)-5-(trifluoromethyl)phenol]"
20,376 nM,"Cc1cc(C)c(-c2cnc(N[C@@H]3CCCN(CC(N)=O)C3)nn2)c(O)c1 [Embodiment 23, (R)-2-(3-((6-(2-hydroxy-4,6-dimethylphenyl)-1,2,4-triazin-3-yl)amino)piperidin-1-yl)acetamide]"
21,3 nM,CN1CCC[C@@H](Nc2nnc(-c3ccc(Cl)cc3O)c3ccncc23)C1 [Embodiment 128]
22,2.2 nM,"CN1CCC[C@@H](Nc2nnc(-c3ccc(C(F)(F)F)cc3O)c3ccncc23)C1 [Embodiment 31, (R)-2-(4-((1-methylpiperidin-3-yl)amino)pyrido[3,4-d]pyridazin-1-yl)-5-(trifluoromethyl)phenol]"
23,21.3 nM,CN1CCC[C@@H](Nc2nnc(-c3ccc(C(F)(F)F)cc3O)c3cc[nH]c23)C1 [Embodiment 20]

row,IC50,SMILES
1,5 nM,CN1CCC[C@@H](Nc2nnc(-c3ccc(C(F)(F)F)cc3O)c3cccc(F)c23)C1 [Embodiment 119]
2,31 nM,CN1CCC[C@@H](Nc2nnc(-c3ccc(C(F)(F)F)cc3O)c3c2ccn3C)C1 [Embodiment 114]
3,49.4 nM,CN1CCC[C@@H](Nc2nnc(-c3ccc(C(F)(F)F)cc3O)c3[nH]ccc23)C1 [Embodiment 21]
4,10.4 nM,C[C@]1(O)C[C@@H](Nc2nnc(-c3ccc(C(F)(F)F)cc3O)c3ccccc23)C1 [Embodiment 65]
5,446 nM,"Cc1cc(C)c(-c2nnc(N[C@@H]3CCCN(C)C3)nn2)c(O)c1 [Embodiment 26, (R)-3,5-Dimethyl-2-(6-((1-methylpiperidin-3)amino)-1,2,4,5-tetraazin-3)phenol]"
6,2.9 nM,COc1ccc2c(-c3ccc(C(F)(F)F)cc3O)nnc(N[C@@H]3CCCN(C)C3)c2c1 [Embodiment 118]
7,54.2 nM,"Cc1nc(N[C@@H]2CCC[C@@H](O)C2)nnc1-c1ccc(C(F)(F)F)cc1O [Embodiment 36, 2-(3-(((1R,3R)-3-hydroxycyclohexyl)amino)-5-methyl-1,2,4-triazin-6-yl)-5-(trifluoromethyl)phenol]"
8,31.1 nM,"Cc1cc(N[C@@H]2CCCN(C)C2)nnc1-c1ncc(C(F)(F)F)cc1O [Embodiment 12, (R)-2-(4-methyl-6-((1-methylpiperidin-3-yl)amino)pyridazin-3-yl)-5-(trifluoromethyl)pyridin-3-ol]"
9,2 nM,CN1CCC[C@@H](Nc2nnc(-c3ccc(C(F)(F)F)cc3O)c3c2C(F)(F)CC3)C1 [Embodiment 112]
10,5.1 nM,Cc1cc(Cl)cc(O)c1-c1nnc(N[C@@H]2CCCN(C)C2)c2ccccc12 [Embodiment 29]
11,4.7 nM,C[C@]1(O)C[C@@H](Nc2nnc(-c3ccc(C(F)(F)F)cc3O)c3cc(F)ccc23)C1 [Embodiment 138]
12,62.7 nM,"Cc1nc(N[C@@H]2CCCN(CC(N)=O)C2)nnc1-c1ccc(C(F)(F)F)cc1O [Embodiment 42, (R)-2-(3-((6-(2-hydroxy-4-(trifluoromethyl)phenyl)-5-methyl-1,2,4-triazin-3-yl)amino)piperidin-1-yl) acetamide]"
13,1.4 nM,"Cc1ccc(-c2nnc(N[C@@H]3CCCN(C)C3)c3ccccc23)c(O)c1 [Embodiment 27, (R)-5-methyl-2-(4-((1-methylpiperidin-3-yl)amino)phthalazin-1-yl)phenol]"
14,29.2 nM,CN1CCC[C@@H](Nc2ncc(-c3c(O)cc(C(F)(F)F)cc3Cl)nn2)C1 [Embodiment 107]
15,10.9 nM,Cc1cc(C)c(-c2cnc(N[C@@H]3CCCN(C)C3)nn2)c(O)c1 [Embodiment 108]
16,85.2 nM,"CN1CCC[C@@H](Nc2nnc(-c3ccc(C(F)(F)F)cc3O)c3c2CCO3)C1 [Embodiment 19, (R)-2-(4-((1-methylpiperidin-3-yl)amino)-2,3-dihydrofuro[2,3-d]pyridazin-7-yl)-5-(trifluoromethyl)phenol]"
17,28 nM,"CN1CCC[C@@H](Nc2nnc(-c3ccc(C(F)(F)F)cc3O)c3occc23)C1 [Embodiment 15, (R)-2-(4-((1-methylpiperidin-3-yl)amino)furo[2,3-d]pyridazin-7-yl)-5-(trifluoromethyl)phenol]"
18,9.9 nM,Cc1cc(Cl)cc(O)c1-c1nnc(N[C@@H]2CCCN(C)C2)c2ncccc12 [Embodiment 125]
19,24 nM,"Cc1cc(C)c(-c2cnc(N[C@@H]3CCCN(C(C)CO)C3)nn2)c(O)c1 (stereo partly drawn) [Embodiment 22, 2-(3-(((3R)-1-(1-hydroxypropyl-2-yl)piperidin-3-yl)amino)-1,2,4-triazin-6-yl)-3,5-dimethylphenol]"
20,46.4 nM,"Cc1nc(N[C@@H]2CCCN(C(C)CO)C2)nnc1-c1ncc(C(F)(F)F)cc1O (stereo partly drawn) [Embodiment 54, 2-(3-(((3R)-1-(1-hydroxypropyl-2-yl)piperidin-3-yl)amino)-5-methyl-1,2,4-triazin-6-yl)-5-(trifluoromethyl)pyridin-3-ol]"
21,10.6 nM,Cc1cc(Cl)cc(O)c1-c1nnc(N[C@@H]2CCCN(C)C2)c2ccccc12 [Embodiment 116]
22,14 nM,Cc1nc(N[C@@H]2CCCN(CC3(O)CC3)C2)nnc1-c1ccc(C(F)(F)F)cc1O [Embodiment 134]
